Experimental data reported in PubChem BioAssay (NCI).
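All cell lines were grown in 96-well plates and treated with compound for 48 hours. At the TGI there is no net growth.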

How the values were obtained:
Assay in all cases: NCI-60 cell line screen, 48 h
SW-620 colon = system: SW-620 colon
UO-31 renal = system: UO-31 renal
SNB-19 CNS = system: SNB-19 CNS
A549 NSCLC = system: A549 NSCLC
UACC-257 melanoma = system: UACC-257 melanoma
OVCAR-8 ovarian = system: OVCAR-8 ovarian
M14 melanoma = system: M14 melanoma
SK-MEL-5 melanoma = system: SK-MEL-5 melanoma
HT29 colon = system: HT29 colon
KM12 colon = system: KM12 colon
SF-268 CNS = system: SF-268 CNS
SK-OV-3 ovarian = system: SK-OV-3 ovarian
HCT-116 colon = system: HCT-116 colon
SK-MEL-2 melanoma = system: SK-MEL-2 melanoma
HOP-92 NSCLC = system: HOP-92 NSCLC
OVCAR-5 ovarian = system: OVCAR-5 ovarian
LXFL 529 NSCLC = system: LXFL 529 NSCLC
SF-295 CNS = system: SF-295 CNS
DMS 114 small cell lung = system: DMS 114 small cell lung
NCI-H522 lung = system: NCI-H522 lung
IGROV1 ovarian = system: IGROV1 ovarian
XF 498 CNS = system: XF 498 CNS
M19-MEL melanoma = system: M19-MEL melanoma
MOLT-4 leukemia = system: MOLT-4 leukemia
EKVX NSCLC = system: EKVX NSCLC
NCI-H226 lung = system: NCI-H226 lung
COLO 205 colon = system: COLO 205 colon
HOP-62 NSCLC = system: HOP-62 NSCLC
DMS 273 small cell lung = system: DMS 273 small cell lung
CAKI-1 renal = system: CAKI-1 renal
SN12C renal = system: SN12C renal
SF-539 CNS = system: SF-539 CNS
RPMI-8226 leukemia = system: RPMI-8226 leukemia
CCRF-CEM leukemia = system: CCRF-CEM leukemia
NCI-H23 lung = system: NCI-H23 lung
DLD-1 colon = system: DLD-1 colon
OVCAR-4 ovarian = system: OVCAR-4 ovarian
786-0 renal = system: 786-0 renal
RXF 393 renal = system: RXF 393 renal
U251 CNS = system: U251 CNS
SR leukemia = system: SR leukemia
LOX IMVI melanoma = system: LOX IMVI melanoma
TK-10 renal = system: TK-10 renal
K-562 leukemia = system: K-562 leukemia
NCI-H460 lung = system: NCI-H460 lung
SK-MEL-28 melanoma = system: SK-MEL-28 melanoma
OVCAR-3 ovarian = system: OVCAR-3 ovarian
SNB-78 CNS = system: SNB-78 CNS
MALME-3M melanoma = system: MALME-3M melanoma
A498 renal = system: A498 renal
SNB-75 CNS = system: SNB-75 CNS
HOP-18 NSCLC = system: HOP-18 NSCLC
UACC-62 melanoma = system: UACC-62 melanoma
RXF-631 renal = system: RXF-631 renal
HL-60(TB) leukemia = system: HL-60(TB) leukemia
HCC-2998 colon = system: HCC-2998 colon
HCT-15 colon = system: HCT-15 colon
KM20L2 colon = system: KM20L2 colon
ACHN renal = system: ACHN renal

## Cc1ccc(C2CC(c3cccc([N+](=O)[O-])c3)=Nc3ccccc3S2)cc1 (configuration not stated)
SW-620 colon
  TGI: 46.2 µM
UO-31 renal
  TGI: > 83.6 µM
SNB-19 CNS
  TGI: > 100 µM
A549 NSCLC
  TGI: > 100 µM
UACC-257 melanoma
  TGI: > 100 µM
OVCAR-8 ovarian
  TGI: > 71.4 µM
M14 melanoma
  TGI: > 100 µM
SK-MEL-5 melanoma
  TGI: > 72.2 µM
HT29 colon
  TGI: 98.1 µM
KM12 colon
  TGI: 46.1 µM
SF-268 CNS
  TGI: 99.1 µM
SK-OV-3 ovarian
  TGI: > 100 µM
HCT-116 colon
  TGI: 27.1 µM
SK-MEL-2 melanoma
  TGI: > 100 µM
HOP-92 NSCLC
  TGI: 52.2 µM
OVCAR-5 ovarian
  TGI: > 100 µM
LXFL 529 NSCLC
  TGI: > 100 µM
SF-295 CNS
  TGI: > 100 µM
DMS 114 small cell lung
  TGI: 57.2 µM
NCI-H522 lung
  TGI: 64.6 µM
IGROV1 ovarian
  TGI: > 100 µM
XF 498 CNS
  TGI: > 100 µM
M19-MEL melanoma
  TGI: > 100 µM
MOLT-4 leukemia
  TGI: > 81.8 µM
EKVX NSCLC
  TGI: > 100 µM
NCI-H226 lung
  TGI: > 100 µM
COLO 205 colon
  TGI: > 100 µM
HOP-62 NSCLC
  TGI: > 100 µM
DMS 273 small cell lung
  TGI: > 100 µM
CAKI-1 renal
  TGI: > 100 µM
SN12C renal
  TGI: > 90.4 µM
SF-539 CNS
  TGI: > 96.3 µM
RPMI-8226 leukemia
  TGI: 41.7 µM
CCRF-CEM leukemia
  TGI: > 81.8 µM
NCI-H23 lung
  TGI: > 76.4 µM
DLD-1 colon
  TGI: > 65 µM
OVCAR-4 ovarian
  TGI: > 100 µM
786-0 renal
  TGI: 51.9 µM
RXF 393 renal
  TGI: > 89.3 µM
U251 CNS
  TGI: > 79.5 µM
SR leukemia
  TGI: > 100 µM
LOX IMVI melanoma
  TGI: 51.9 µM
TK-10 renal
  TGI: > 100 µM
K-562 leukemia
  TGI: 77.2 µM
NCI-H460 lung
  TGI: > 100 µM
SK-MEL-28 melanoma
  TGI: > 100 µM
OVCAR-3 ovarian
  TGI: > 74.7 µM
SNB-78 CNS
  TGI: > 31.6 µM
MALME-3M melanoma
  TGI: > 100 µM
A498 renal
  TGI: > 100 µM
SNB-75 CNS
  TGI: > 96.1 µM
HOP-18 NSCLC
  TGI: > 100 µM
UACC-62 melanoma
  TGI: > 100 µM
RXF-631 renal
  TGI: > 100 µM
HL-60(TB) leukemia
  TGI: 47.5 µM
HCC-2998 colon
  TGI: > 100 µM
HCT-15 colon
  TGI: > 100 µM
KM20L2 colon
  TGI: > 100 µM
ACHN renal
  TGI: > 100 µM

## Cc1csc2nc(-c3ccncc3)cn12
SW-620 colon
  TGI: > 54.2 µM
UO-31 renal
  TGI: > 100 µM
SNB-19 CNS
  TGI: > 100 µM
A549 NSCLC
  TGI: > 100 µM
UACC-257 melanoma
  TGI: > 100 µM
OVCAR-8 ovarian
  TGI: > 100 µM
M14 melanoma
  TGI: > 100 µM
SK-MEL-5 melanoma
  TGI: > 100 µM
HT29 colon
  TGI: > 100 µM
KM12 colon
  TGI: > 100 µM
SF-268 CNS
  TGI: > 100 µM
SK-OV-3 ovarian
  TGI: > 100 µM
HCT-116 colon
  TGI: > 59.3 µM
SK-MEL-2 melanoma
  TGI: > 100 µM
HOP-92 NSCLC
  TGI: > 100 µM
OVCAR-5 ovarian
  TGI: > 100 µM
LXFL 529 NSCLC
  TGI: > 76.5 µM
SF-295 CNS
  TGI: > 100 µM
DMS 114 small cell lung
  TGI: > 60.9 µM
NCI-H522 lung
  TGI: > 100 µM
IGROV1 ovarian
  TGI: > 100 µM
XF 498 CNS
  TGI: > 100 µM
M19-MEL melanoma
  TGI: > 100 µM
MOLT-4 leukemia
  TGI: > 100 µM
EKVX NSCLC
  TGI: > 100 µM
NCI-H226 lung
  TGI: > 100 µM
COLO 205 colon
  TGI: > 79.7 µM
HOP-62 NSCLC
  TGI: > 100 µM
DMS 273 small cell lung
  TGI: 41 µM
CAKI-1 renal
  TGI: > 100 µM
SN12C renal
  TGI: > 100 µM
SF-539 CNS
  TGI: > 65.9 µM
RPMI-8226 leukemia
  TGI: > 64.1 µM
CCRF-CEM leukemia
  TGI: > 61 µM
NCI-H23 lung
  TGI: > 100 µM
DLD-1 colon
  TGI: > 100 µM
OVCAR-4 ovarian
  TGI: > 100 µM
786-0 renal
  TGI: 34.5 µM
U251 CNS
  TGI: > 72.6 µM
SR leukemia
  TGI: 51 µM
LOX IMVI melanoma
  TGI: > 61.5 µM
TK-10 renal
  TGI: > 100 µM
K-562 leukemia
  TGI: > 65.4 µM
NCI-H460 lung
  TGI: > 61.4 µM
SK-MEL-28 melanoma
  TGI: > 100 µM
OVCAR-3 ovarian
  TGI: > 100 µM
SNB-78 CNS
  TGI: > 100 µM
MALME-3M melanoma
  TGI: > 100 µM
A498 renal
  TGI: > 100 µM
SNB-75 CNS
  TGI: > 100 µM
HOP-18 NSCLC
  TGI: > 100 µM
UACC-62 melanoma
  TGI: > 100 µM
RXF-631 renal
  TGI: > 100 µM
HL-60(TB) leukemia
  TGI: > 52.4 µM
HCC-2998 colon
  TGI: > 100 µM
HCT-15 colon
  TGI: > 56.7 µM
KM20L2 colon
  TGI: > 100 µM
ACHN renal
  TGI: > 100 µM
